Here are results for 9 compounds from ChEMBL document CHEMBL4834455, “Sesquiterpenes and Steroids from an Endophytic Eutypella scoparia” (J Nat Prod, 2021).

Activity calls are given as the source filed them. The calls are words filed in the database; no cut-off is given here.

One data set has as its system MCF7. Put plainly: Antiproliferative activity against human MCF7 cells assessed as cell growth inhibition measured after 48 hrs by MTT assay. The format is functional, cell-based.
Details: not given
For orientation: Tetrazolium assays rely on reduction of a dye to a coloured formazan, in cell work by metabolically active cells.
For the compound `CC1=C2C[C@@H](C(C)(C)O)CC[C@]2(C)CCC1=O`, the result was inactive.

With `CC(=O)OCC(=O)[C@H]1CC[C@]2(C)CCC=C(C)[C@H]2C1`, the result was inactive.

In the case of `CC1=CCC[C@@]2(C)C[C@H]3OC(=O)[C@@H](C)[C@@H]3C[C@H]12`, the outcome was inactive.

Consider `C=C1CCC(=O)[C@@]2(C)CC[C@H](C(C)(C)O)C[C@H]12`, for which the result was inactive.

As for `C=C1CCC[C@@]2(C)CC[C@H](C(C)(C)O)C[C@H]12`, the result was inactive.

With `C=C1C[C@@H](O)C[C@@]2(C)CC[C@H](C(C)(C)O)C[C@H]12`, the outcome was inactive.

In the case of `CC1=CC(=O)C[C@@]2(C)CC[C@H](C(C)CO)C[C@H]12` (some centres undefined), the result was inactive.

`CC(C)=CCC/C(C)=C/CC/C(C)=C/CC/C=C(\C)CC/C=C(\C)CCC=C(C)C` [SQUALENE]: the outcome was inactive.

In the case of `CC[C@H](CC[C@@H](C)[C@H]1CC[C@H]2[C@@H]3CC=C4C[C@@H](O)CC[C@]4(C)[C@H]3CC[C@]12C)C(C)C` [BETA-SITOSTEROL], the outcome was inactive.

A further data set deals with HeLa. Put plainly: Antiproliferative activity against human HeLa cells assessed as cell growth inhibition measured after 48 hrs by MTT assay. The format is functional, cell-based.
Details: not given
Consider `CC1=C2C[C@@H](C(C)(C)O)CC[C@]2(C)CCC1=O`, for which the outcome was inactive.

Consider `CC(=O)OCC(=O)[C@H]1CC[C@]2(C)CCC=C(C)[C@H]2C1`, for which the result was inactive.

For the compound `CC1=CCC[C@@]2(C)C[C@H]3OC(=O)[C@@H](C)[C@@H]3C[C@H]12`, the result was inactive.

Take `C=C1CCC(=O)[C@@]2(C)CC[C@H](C(C)(C)O)C[C@H]12`: the outcome was inactive.

With `C=C1CCC[C@@]2(C)CC[C@H](C(C)(C)O)C[C@H]12`, the outcome was inactive.

With `C=C1C[C@@H](O)C[C@@]2(C)CC[C@H](C(C)(C)O)C[C@H]12`, the result was inactive.

Regarding `CC1=CC(=O)C[C@@]2(C)CC[C@H](C(C)CO)C[C@H]12` (some centres undefined), the outcome was inactive.

Take `CC(C)=CCC/C(C)=C/CC/C(C)=C/CC/C=C(\C)CC/C=C(\C)CCC=C(C)C` [SQUALENE]: the outcome was inactive.

For `CC[C@H](CC[C@@H](C)[C@H]1CC[C@H]2[C@@H]3CC=C4C[C@@H](O)CC[C@]4(C)[C@H]3CC[C@]12C)C(C)C` [BETA-SITOSTEROL], the result was inactive.

The next data set concerns MDA-MB-231. The experiment in a line: Antiproliferative activity against human MDA-MB-231 cells assessed as cell growth inhibition measured after 48 hrs by MTT assay. The format is functional, cell-based.
Details: not given
On to `CC1=C2C[C@@H](C(C)(C)O)CC[C@]2(C)CCC1=O`, for which the outcome was inactive.

With `CC(=O)OCC(=O)[C@H]1CC[C@]2(C)CCC=C(C)[C@H]2C1`, the result was inactive.

For the compound `CC1=CCC[C@@]2(C)C[C@H]3OC(=O)[C@@H](C)[C@@H]3C[C@H]12`, the outcome was inactive.

As to `C=C1CCC(=O)[C@@]2(C)CC[C@H](C(C)(C)O)C[C@H]12`, the result was inactive.

In the case of `C=C1CCC[C@@]2(C)CC[C@H](C(C)(C)O)C[C@H]12`, the outcome was inactive.

Take `C=C1C[C@@H](O)C[C@@]2(C)CC[C@H](C(C)(C)O)C[C@H]12`: the outcome was inactive.

For `CC1=CC(=O)C[C@@]2(C)CC[C@H](C(C)CO)C[C@H]12` (some centres undefined), the outcome was inactive.

For the compound `CC(C)=CCC/C(C)=C/CC/C(C)=C/CC/C=C(\C)CC/C=C(\C)CCC=C(C)C` [SQUALENE], the result was inactive.

`CC[C@H](CC[C@@H](C)[C@H]1CC[C@H]2[C@@H]3CC=C4C[C@@H](O)CC[C@]4(C)[C@H]3CC[C@]12C)C(C)C` [BETA-SITOSTEROL]: the result was inactive.

The next data set has as its system Staphylococcus aureus. Put plainly: Antibacterial activity against methicillin-resistant Staphylococcus aureus JCSC3063 assessed as bacterial growth inhibition by microbroth dilution method.
Details: not given
The format is functional.
For the compound `CC1=C2C[C@@H](C(C)(C)O)CC[C@]2(C)CCC1=O`, the outcome was inactive.

As for `CC(=O)OCC(=O)[C@H]1CC[C@]2(C)CCC=C(C)[C@H]2C1`, the outcome was inactive.

As to `CC1=CCC[C@@]2(C)C[C@H]3OC(=O)[C@@H](C)[C@@H]3C[C@H]12`, the result was inactive.

For `C=C1CCC(=O)[C@@]2(C)CC[C@H](C(C)(C)O)C[C@H]12`, the outcome was inactive.

On to `C=C1CCC[C@@]2(C)CC[C@H](C(C)(C)O)C[C@H]12`, for which the outcome was inactive.

For the compound `C=C1C[C@@H](O)C[C@@]2(C)CC[C@H](C(C)(C)O)C[C@H]12`, the result was inactive.

`CC1=CC(=O)C[C@@]2(C)CC[C@H](C(C)CO)C[C@H]12` (some centres undefined): the outcome was inactive.

For the compound `CC(C)=CCC/C(C)=C/CC/C(C)=C/CC/C=C(\C)CC/C=C(\C)CCC=C(C)C` [SQUALENE], the result was inactive.

In the case of `CC[C@H](CC[C@@H](C)[C@H]1CC[C@H]2[C@@H]3CC=C4C[C@@H](O)CC[C@]4(C)[C@H]3CC[C@]12C)C(C)C` [BETA-SITOSTEROL], the outcome was inactive.

Another data set has as its system Staphylococcus aureus. Put plainly: Antibacterial activity against Staphylococcus aureus CMCC26003 assessed as bacterial growth inhibition by microbroth dilution method. The format is functional.
Details: not given
A general note: Dilution methods test growth across graded concentrations, often in twofold steps.
`CC1=C2C[C@@H](C(C)(C)O)CC[C@]2(C)CCC1=O`: the outcome was inactive.

`CC(=O)OCC(=O)[C@H]1CC[C@]2(C)CCC=C(C)[C@H]2C1`: the result was inactive.

`CC1=CCC[C@@]2(C)C[C@H]3OC(=O)[C@@H](C)[C@@H]3C[C@H]12`: the result was inactive.

Consider `C=C1CCC(=O)[C@@]2(C)CC[C@H](C(C)(C)O)C[C@H]12`, for which the result was inactive.

With `C=C1CCC[C@@]2(C)CC[C@H](C(C)(C)O)C[C@H]12`, the outcome was inactive.

Consider `C=C1C[C@@H](O)C[C@@]2(C)CC[C@H](C(C)(C)O)C[C@H]12`, for which the result was inactive.

Turning to `CC1=CC(=O)C[C@@]2(C)CC[C@H](C(C)CO)C[C@H]12` (some centres undefined), the result was inactive.

For `CC(C)=CCC/C(C)=C/CC/C(C)=C/CC/C=C(\C)CC/C=C(\C)CCC=C(C)C` [SQUALENE], the result was inactive.

Turning to `CC[C@H](CC[C@@H](C)[C@H]1CC[C@H]2[C@@H]3CC=C4C[C@@H](O)CC[C@]4(C)[C@H]3CC[C@]12C)C(C)C` [BETA-SITOSTEROL], the outcome was inactive.

Tested on in the next data set: not listed separately
Put plainly: Cytotoxicity against African green monkey MARC145 cells assessed as cell growth inhibition measured after 48 hrs by MTT assay. The format is cell-based. Particulars: chlorocebus aethiops, marc145, 48 h.
Consider `CC1=C2C[C@@H](C(C)(C)O)CC[C@]2(C)CCC1=O`, for which the Activity result is “Non-Toxic”.

Consider `CC(=O)OCC(=O)[C@H]1CC[C@]2(C)CCC=C(C)[C@H]2C1`, for which the Activity result is “Non-Toxic”.

Turning to `CC1=CCC[C@@]2(C)C[C@H]3OC(=O)[C@@H](C)[C@@H]3C[C@H]12`, the Activity result is recorded as “Non-Toxic”.

On to `C=C1CCC(=O)[C@@]2(C)CC[C@H](C(C)(C)O)C[C@H]12`, for which the Activity result was “Non-Toxic”.

For the compound `C=C1CCC[C@@]2(C)CC[C@H](C(C)(C)O)C[C@H]12`, the Activity entry was “Non-Toxic”.

On to `C=C1C[C@@H](O)C[C@@]2(C)CC[C@H](C(C)(C)O)C[C@H]12`, for which the Activity result is listed as “Non-Toxic”.

For `CC1=CC(=O)C[C@@]2(C)CC[C@H](C(C)CO)C[C@H]12` (some centres undefined), the Activity result is “Non-Toxic”.

For the compound `CC(C)=CCC/C(C)=C/CC/C(C)=C/CC/C=C(\C)CC/C=C(\C)CCC=C(C)C` [SQUALENE], the Activity result is given as “Non-Toxic”.

`CC[C@H](CC[C@@H](C)[C@H]1CC[C@H]2[C@@H]3CC=C4C[C@@H](O)CC[C@]4(C)[C@H]3CC[C@]12C)C(C)C` [BETA-SITOSTEROL]: the Activity entry is listed as “Non-Toxic”.
